Reference: US11000033B2, “Ketone or oxime compound, and herbicide” (NISSAN CHEMICAL CORPORATION, priority 2014, dated 2021)

Experiments:
Format in all cases: in vivo
[1] = tested on: Echinochloa crus-galli var. crus-galli; experiment: Test Example 3: herbicidal effect by foliage application, Wagner pot (symbol H); conditions: application herbicide amount 320 g/ha
Summary of the method: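 Foliar spray of a water-diluted emulsion at a predetermined herbicide amount, applied to 14-day-old plants. Seedlings were raised in flooded alluvial soil (0.1–0.5 cm water) at 25–30 °C in a greenhouse. Injury was rated after 3 weeks against fixed criteria.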

Amaranthus retroflexus = experiment: Test Example 4: herbicidal effect by soil treatment (symbol N); conditions: for N (Amaranthus retroflexus) herbicidal effect grade: application herbicide amount 320 g/ha
Summary of the method: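 Seeds were sown in sterilized diluvial soil, covered with about 1.5 cm of soil, and the soil surface was sprayed with a water-diluted emulsion of the compound at a predetermined rate. Plants grew in a greenhouse at 25° C. to 30° C.; effects were scored visually 3 weeks after application.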

[2] = tested on: Echinochloa oryzacola Vasing.; experiment: Test Example 1: herbicidal activity, application before weed generation in submerged conditions (symbol A); conditions: application herbicide amount 320 g/ha
Summary of the method: (§1)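 Flooded alluvial soil (4 cm water) was mixed-sown with the three weed species, and 2.5-leaf rice seedlings were transplanted. On sowing day, a water-diluted emulsion at a predetermined rate was applied to the water surface. After 3 weeks in a 25–30 °C greenhouse, effect was scored 0–5.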

wheat = experiment: Test Example 5: effect on crop by foliage application, plastic box (symbol e); conditions: 320 g/ha, 3 weeks after application
Summary of the method: (§2)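 Greenhouse test at 25° C. to 30° C. Seeds of crops and weeds were spot-sown in boxes of sterilized diluvial soil under roughly 1.5 cm soil cover, then grown for foliage treatment.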

rice plant = experiment: Test Example 5: effect on crop by foliage application, plastic box (symbol b); conditions: 320 g/ha, 3 weeks after application
Summary of the method: as §2

Scirpus juncoides [3] = experiment: Test Example 2: herbicidal activity, application during weed generation in submerged conditions (symbol B); conditions: Table 23; application herbicide amount 320 g/ha; grade 0-5 by criteria of Test Example 1
Summary of the method: (§3)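 Scoring of herbicidal effect took place 3 weeks after treatment, using the criteria of the earlier test. Treatment was water-surface application of diluted emulsifiable compound at a set dose. Plants were at one- to two-leaf stage in submerged alluvial soil (4 cm depth), greenhouse 25-30° C.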

Avena fatua = experiment: Test Example 5: herbicidal effect by foliage application, plastic box (symbol I); conditions: 320 g/ha, 3 weeks after application
Summary of the method: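 Sowing in sterilized diluvial soil, 14 days' greenhouse growth at 25° C. to 30° C., then uniform small-sprayer foliar application of aqueous emulsion dilution; plants scored three weeks afterwards.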

rapeseed = experiment: Test Example 4: effect on crop by soil treatment (symbol g); conditions: for g (rapeseed) effect on crop grade: application herbicide amount 320 g/ha
Summary of the method: (§4)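 Greenhouse culture at 25° C. to 30° C. followed sowing of seed in spots on sterilized diluvial soil with a soil cover close to 1.5 cm thick.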

soybean [4] = experiment: Test Example 5: effect on crop by foliage application, plastic box (symbol d); conditions: 320 g/ha, 3 weeks after application
Summary of the method: as §2

Monochoria vaginalis = experiment: Test Example 2: herbicidal activity, application during weed generation in submerged conditions (symbol C); conditions: Table 23; application herbicide amount 320 g/ha; grade 0-5 by criteria of Test Example 1
Summary of the method: as §3

soybean [5] = experiment: Test Example 4: effect on crop by soil treatment (symbol d); conditions: for d (soybean) effect on crop grade: application herbicide amount 320 g/ha
Summary of the method: as §4

Scirpus juncoides [6] = experiment: Test Example 1: herbicidal activity, application before weed generation in submerged conditions (symbol B); conditions: application herbicide amount 320 g/ha
Summary of the method: as §1

CON=C(C)CC1CC(OC(=O)COc2ccc(I)cc2)=C(c2c(C)cc(C)cc2C)C1=O (stereo not drawn) [1-082]
herbicidal effect on H (Echinochloa crus-galli var. crus-galli), grade 0-5 [1]: 5 (Herbicidal ratio of 90% or more (almost completely withered))
N: Amaranthus retroflexus, herbicidal effect grade (Amaranthus retroflexus; 320 g/ha): 5 (Herbicidal ratio of 90% or more (almost completely withered))
Herbicidal effect grade, A: Echinochloa oryzacola Vasing. [2]: 5 (Herbicidal ratio of 90% or more (almost completely withered))
e: wheat, effect on crop (criteria 0-5) (wheat): 5 (Herbicidal ratio of 90% or more (almost completely withered))
b: directly sowed rice plant, effect on crop (criteria 0-5) (rice plant): 5 (Herbicidal ratio of 90% or more (almost completely withered))
Herbicidal effect grade, B: Scirpus juncoides (Scirpus juncoides [3]): 5 (Herbicidal ratio of 90% or more (almost completely withered))
I: Avena fatua, herbicidal effect (criteria 0-5) (Avena fatua): 5 (Herbicidal ratio of 90% or more (almost completely withered))
g: rapeseed, effect grade on crop (rapeseed; 320 g/ha): 4 (Herbicidal ratio of 70% or higher and lower than 90%)
d: soybean, effect on crop (criteria 0-5) (soybean [4]): 4 (Herbicidal ratio of 70% or higher and lower than 90%)
Herbicidal effect grade, C: Monochoria vaginalis (Monochoria vaginalis): 3 (Herbicidal ratio of 40% or higher and lower than 70%)
d: soybean, effect grade on crop (soybean [5]; 320 g/ha): 2 (Herbicidal ratio of 20% or higher and lower than 40%)
Herbicidal effect grade, B: Scirpus juncoides (Scirpus juncoides [6]): 5 (Herbicidal ratio of 90% or more (almost completely withered))

CC(CC1CC(O)=C(c2c(C)cc(C)cc2C)C1=O)=NOc1ccccc1 (stereo not drawn) [1-057]
herbicidal effect on H (Echinochloa crus-galli var. crus-galli), grade 0-5 [1]: 4 (Herbicidal ratio of 70% or higher and lower than 90%)
N (Amaranthus retroflexus) herbicidal effect grade (Amaranthus retroflexus): 1 (Herbicidal ratio of 5% or higher and lower than 20%)
Herbicidal effect grade, A: Echinochloa oryzacola Vasing. [2]: 5 (Herbicidal ratio of 90% or more (almost completely withered))
e: wheat, effect on crop grade (wheat): 0 (Herbicidal ratio of 5% or lower (almost no effect))
b: directly sowed rice plant, effect on crop grade (rice plant): 3 (Herbicidal ratio of 40% or higher and lower than 70%)
Herbicidal effect grade, B: Scirpus juncoides (Scirpus juncoides [3]): 0 (Herbicidal ratio of 5% or lower (almost no effect))
I: Avena fatua, herbicidal effect grade (Avena fatua): 2 (Herbicidal ratio of 20% or higher and lower than 40%)
g (rapeseed) effect on crop grade (rapeseed): 4 (Herbicidal ratio of 70% or higher and lower than 90%)
d: soybean, effect on crop grade (soybean [4]): 3 (Herbicidal ratio of 40% or higher and lower than 70%)
Herbicidal effect grade, C: Monochoria vaginalis (Monochoria vaginalis): 0 (Herbicidal ratio of 5% or lower (almost no effect))
d (soybean) effect on crop grade (soybean [5]): 0 (Herbicidal ratio of 5% or lower (almost no effect))
Herbicidal effect grade, B: Scirpus juncoides (Scirpus juncoides [6]): 3 (Herbicidal ratio of 40% or higher and lower than 70%)

CON=C(C)CC1CC(OC(=O)C(C)(C)Oc2ccccc2Cl)=C(c2c(C)cc(C)cc2C)C1=O (stereo not drawn) [1-064]
herbicidal effect on H (Echinochloa crus-galli var. crus-galli), grade 0-5 [1]: 5 (Herbicidal ratio of 90% or more (almost completely withered))
N (Amaranthus retroflexus) herbicidal effect grade (Amaranthus retroflexus): 4 (Herbicidal ratio of 70% or higher and lower than 90%)
Herbicidal effect grade, A: Echinochloa oryzacola Vasing. [2]: 5 (Herbicidal ratio of 90% or more (almost completely withered))
e: wheat, effect on crop grade (wheat): 5 (Herbicidal ratio of 90% or more (almost completely withered))
b: directly sowed rice plant, effect on crop grade (rice plant): 5 (Herbicidal ratio of 90% or more (almost completely withered))
Herbicidal effect grade, B: Scirpus juncoides (Scirpus juncoides [3]): 4 (Herbicidal ratio of 70% or higher and lower than 90%)
I: Avena fatua, herbicidal effect grade (Avena fatua): 5 (Herbicidal ratio of 90% or more (almost completely withered))
g (rapeseed) effect on crop grade (rapeseed): 4 (Herbicidal ratio of 70% or higher and lower than 90%)
d: soybean, effect on crop grade (soybean [4]): 4 (Herbicidal ratio of 70% or higher and lower than 90%)
Herbicidal effect grade, C: Monochoria vaginalis (Monochoria vaginalis): 1 (Herbicidal ratio of 5% or higher and lower than 20%)
d (soybean) effect on crop grade (soybean [5]): 2 (Herbicidal ratio of 20% or higher and lower than 40%)
Herbicidal effect grade, B: Scirpus juncoides (Scirpus juncoides [6]): 5 (Herbicidal ratio of 90% or more (almost completely withered))

COCCON=C(C)CC1CC(O)=C(c2c(C)cc(C)cc2C)C1=O (stereo not drawn) [1-041]
herbicidal effect on H (Echinochloa crus-galli var. crus-galli), grade 0-5 [1]: 5 (Herbicidal ratio of 90% or more (almost completely withered))
N (Amaranthus retroflexus) herbicidal effect grade (Amaranthus retroflexus): 3 (Herbicidal ratio of 40% or higher and lower than 70%)
Herbicidal effect grade, A: Echinochloa oryzacola Vasing. [2]: 5 (Herbicidal ratio of 90% or more (almost completely withered))
e: wheat, effect on crop grade (wheat): 5 (Herbicidal ratio of 90% or more (almost completely withered))
b: directly sowed rice plant, effect on crop grade (rice plant): 5 (Herbicidal ratio of 90% or more (almost completely withered))
Herbicidal effect grade, B: Scirpus juncoides (Scirpus juncoides [3]): 0 (Herbicidal ratio of 5% or lower (almost no effect))
I: Avena fatua, herbicidal effect grade (Avena fatua): 5 (Herbicidal ratio of 90% or more (almost completely withered))
g (rapeseed) effect on crop grade (rapeseed): 4 (Herbicidal ratio of 70% or higher and lower than 90%)
d: soybean, effect on crop grade (soybean [4]): 4 (Herbicidal ratio of 70% or higher and lower than 90%)
Herbicidal effect grade, C: Monochoria vaginalis (Monochoria vaginalis): 0 (Herbicidal ratio of 5% or lower (almost no effect))
d (soybean) effect on crop grade (soybean [5]): 1 (Herbicidal ratio of 5% or higher and lower than 20%)
Herbicidal effect grade, B: Scirpus juncoides (Scirpus juncoides [6]): 5 (Herbicidal ratio of 90% or more (almost completely withered))

CON=C(C)CC1CC(OC(=O)COc2ccc(Cl)cc2)=C(c2c(C)cc(C)cc2C)C1=O (stereo not drawn) [1-044]
herbicidal effect on H (Echinochloa crus-galli var. crus-galli), grade 0-5 [1]: 5 (Herbicidal ratio of 90% or more (almost completely withered))
N (Amaranthus retroflexus) herbicidal effect grade (Amaranthus retroflexus): 4 (Herbicidal ratio of 70% or higher and lower than 90%)
Herbicidal effect grade, A: Echinochloa oryzacola Vasing. [2]: 5 (Herbicidal ratio of 90% or more (almost completely withered))
e: wheat, effect on crop grade (wheat): 5 (Herbicidal ratio of 90% or more (almost completely withered))
b: directly sowed rice plant, effect on crop grade (rice plant): 5 (Herbicidal ratio of 90% or more (almost completely withered))
Herbicidal effect grade, B: Scirpus juncoides (Scirpus juncoides [3]): 4 (Herbicidal ratio of 70% or higher and lower than 90%)
I: Avena fatua, herbicidal effect grade (Avena fatua): 5 (Herbicidal ratio of 90% or more (almost completely withered))
g (rapeseed) effect on crop grade (rapeseed): 4 (Herbicidal ratio of 70% or higher and lower than 90%)
d: soybean, effect on crop grade (soybean [4]): 4 (Herbicidal ratio of 70% or higher and lower than 90%)
Herbicidal effect grade, C: Monochoria vaginalis (Monochoria vaginalis): 3 (Herbicidal ratio of 40% or higher and lower than 70%)
d (soybean) effect on crop grade (soybean [5]): 0 (Herbicidal ratio of 5% or lower (almost no effect))
Herbicidal effect grade, B: Scirpus juncoides (Scirpus juncoides [6]): 5 (Herbicidal ratio of 90% or more (almost completely withered))

CON=C(C)CC1CC(OC(=O)C(C)Cl)=C(c2c(C)cc(C)cc2C)C1=O (stereo not drawn) [1-042]
herbicidal effect on H (Echinochloa crus-galli var. crus-galli), grade 0-5 [1]: 5 (Herbicidal ratio of 90% or more (almost completely withered))
N (Amaranthus retroflexus) herbicidal effect grade (Amaranthus retroflexus): 4 (Herbicidal ratio of 70% or higher and lower than 90%)
Herbicidal effect grade, A: Echinochloa oryzacola Vasing. [2]: 0 (Herbicidal ratio of 5% or lower (almost no effect))
e: wheat, effect on crop grade (wheat): 5 (Herbicidal ratio of 90% or more (almost completely withered))
b: directly sowed rice plant, effect on crop grade (rice plant): 5 (Herbicidal ratio of 90% or more (almost completely withered))
Herbicidal effect grade, B: Scirpus juncoides (Scirpus juncoides [3]): 4 (Herbicidal ratio of 70% or higher and lower than 90%)
I: Avena fatua, herbicidal effect grade (Avena fatua): 5 (Herbicidal ratio of 90% or more (almost completely withered))
g (rapeseed) effect on crop grade (rapeseed): 4 (Herbicidal ratio of 70% or higher and lower than 90%)
d: soybean, effect on crop grade (soybean [4]): 3 (Herbicidal ratio of 40% or higher and lower than 70%)
Herbicidal effect grade, C: Monochoria vaginalis (Monochoria vaginalis): 3 (Herbicidal ratio of 40% or higher and lower than 70%)
d (soybean) effect on crop grade (soybean [5]): 0 (Herbicidal ratio of 5% or lower (almost no effect))
Herbicidal effect grade, B: Scirpus juncoides (Scirpus juncoides [6]): 5 (Herbicidal ratio of 90% or more (almost completely withered))
